# According to patent US9163018B2, “Method of treatment of age-related macular degeneration (AMD)” (Prana Biotechnology Limited, priority 2006, dated 2015):
# Assays:
# [1] = tested on: Aβ deposits; conditions: daily oral gavage 30 mg/kg, 9 weeks, 13-14 months old transgenic mice
# [2] = tested on: M17 human neuroblastoma cells; assay: Cytotoxicity, M17 human neuroblastoma cells; format: cell-based
# Description: Assay 3. MTS Assay for Cell Viability
# Cell viability is determined using the MTS assay. Culture medium is replaced with fresh neurobasal medium plus B27 supplements minus antioxidants. 1/10th volume MTS solution (Cell Titre 96 Aqueous One, Promega Corporation) and incubated at 37° C., 2 hrs. 200 microliter aliquots are measured with a spectrophotometer at 560 nm.
# [3] = Mice plasma concentration after oral dose; format: in vivo; conditions: 30 min to 4 h after single or repeat oral dose of 30 mg/kg
# [4] = tested on: dityrosine oligomerization; assay: CuTy: inhibition of dityrosine oligomerization; format: biochemical; conditions: referenced to in-house standard (set as 100% inhibition)
# [5] = target: T1, Aβ 1-42 (Homo sapiens, UniProt P05067); assay: Fluorometric H2O2 assay (inhibition of Abeta H2O2 production); format: biochemical; conditions: concentration required to inhibit 50% of Abeta H2O2 production; read-out: H2O2 IC50
# T1 construct: The reaction solutions contained Aβ 1-42 at concentrations
# T1 sequence (P05067 672-713 limits assumed): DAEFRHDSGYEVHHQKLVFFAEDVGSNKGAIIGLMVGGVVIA
# Method in brief: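 Copper-dependent Aβ H2O2 production measured fluorometrically with deacetylated dichlorofluorescein plus HRP in PBS, pH 7.4. Incubation 60 min at 37 C, test compound included in wells. H2O2 quantified against H2O2 standards.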
# [6] = Toxicity, visual observations in mice; conditions: 30 mg/kg; duration and visual observations
# [7] = tested on: primary cortical neuronal cultured cells; assay: Test compound cytotoxicity, MTS assay, primary cortical neuronal cultures; format: cell-based, mouse
# Method in brief: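 Primary cortical neurons were cultured five days in Neurobasal/B27, then exposed on day six to compounds (from 2.5 mM DMSO stocks) in medium minus antioxidants, in triplicate for 4 days at 37° C. Viability was measured by MTS, 2 h at 37° C, absorbance at 560 nm.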
# [8] = tested on: metal ions in retinal drusen; assay: Post mortem retina screening, ZP1 zinc labeling of Bruch membrane; conditions: 15 hours incubation; TPEN 100 μM, PB-1033 100 and 250 μM; 10 μM ZP1
# Description: Post Mortem Screening The BAS assay is adopted for post mortem retina. Using a trephine, 6 mm diameter regions of peripheral retina from frozen donor eyes are dissected. Following defrosting, the neuronal retina and the RPE cells are removed by gentle agitation in PBS buffer. Following removal of the RPE cells, strips of the Bruch membrane are cut from the eye. 4 samples are prepared: 1) Control […] Samples are then washed 3 times and the labeling visualized using a fluorescence and confocal microscope. A repeat of this procedure is performed with the exception that samples are incubated for a period of 15 hours before washing to determine differential metal binding over this longer period. The test results are in the form of fluorescence imaging from a confocal microscope of the 4 samples tested in this Example after 15 hours of sample incubation. […] Fluorescence microscopic photographs (which are in colour) are available upon request from the […].
smiles,measurement,setting,value
CN(C)Cc1ccc2c(Cl)cc(Cl)c(O)c2n1.Cl [PB 1033],Tg Mice % difference from control in Amyloid plaque abundance,[1],−42%
same,Tg Mice % difference from control in insoluble brain amyloid burden,[1],−29%
same,Tg Mice % difference from control in soluble brain amyloid burden,[1],−37%
same,Cytotox (% viable) M17 cells at 1 μM,[2]; 1 μM test compound,94%
same,Cytotox (% viable) M17 cells at 10 μM,[2]; 10 μM test compound,54.3%
same,Mice plasma concentration,[3],Up to 500 ng/ml ng/mL
same,CuTy % inhibition of dityrosine oligomerization,[4],100%
same,IC50,[5],350 nM
same,Toxicity at 30 mg/kg,[6],"10 days, none"
same,Cytotox (% viable) Neuronal cells at 1 μM,[7]; 1 μM test compound,84%
same,Cytotox (% viable) Neuronal cells at 10 μM,[7]; 10 μM test compound,72%
same,ZP1 (zinc sensor) labeling of post mortem Bruch membrane,[8],inhibited ZP1 labeling
